Assay [1] has as its system SiHa. The assay can be described thus: cells. Type of assay: functional, cell-based. The settings on record: Homo sapiens.
Description: Antiproliferative activity against human SiHa cells assessed as inhibition of cell growth by MTT assay
The target of assay [2] is Histone deacetylase 5 (Homo sapiens) (UniProt Q9UQL6). The assay can be described thus: Inhibition of HDAC5 (unknown origin) assessed as residual activity at 1 x 10^-5M (reference value: 100%). The following applies: dose 1.0 10^-5M.
Assay [3] addresses T1, Histone deacetylase 8 (Homo sapiens) (UniProt Q9BY41).
T1 sequence (whole entry): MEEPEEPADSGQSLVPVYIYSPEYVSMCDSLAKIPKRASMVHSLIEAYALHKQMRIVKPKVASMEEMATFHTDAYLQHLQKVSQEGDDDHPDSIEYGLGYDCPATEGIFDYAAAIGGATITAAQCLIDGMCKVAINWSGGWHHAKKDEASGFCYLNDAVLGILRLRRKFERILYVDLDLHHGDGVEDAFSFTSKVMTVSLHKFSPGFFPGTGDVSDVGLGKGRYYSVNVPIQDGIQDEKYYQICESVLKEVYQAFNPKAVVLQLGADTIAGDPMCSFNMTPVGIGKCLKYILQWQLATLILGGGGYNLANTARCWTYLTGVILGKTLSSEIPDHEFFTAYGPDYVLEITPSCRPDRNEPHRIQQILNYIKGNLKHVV
The assay can be described thus: Inhibition of HDAC8 (unknown origin) assessed as residual activity at 1 x 10^-5M (reference value: 100%). The settings on record: dose 1.0 10^-5M.

Assay [4] has as its target T2, Polyamine deacetylase HDAC10 (Homo sapiens) (UniProt Q969S8).
T2 sequence (whole entry): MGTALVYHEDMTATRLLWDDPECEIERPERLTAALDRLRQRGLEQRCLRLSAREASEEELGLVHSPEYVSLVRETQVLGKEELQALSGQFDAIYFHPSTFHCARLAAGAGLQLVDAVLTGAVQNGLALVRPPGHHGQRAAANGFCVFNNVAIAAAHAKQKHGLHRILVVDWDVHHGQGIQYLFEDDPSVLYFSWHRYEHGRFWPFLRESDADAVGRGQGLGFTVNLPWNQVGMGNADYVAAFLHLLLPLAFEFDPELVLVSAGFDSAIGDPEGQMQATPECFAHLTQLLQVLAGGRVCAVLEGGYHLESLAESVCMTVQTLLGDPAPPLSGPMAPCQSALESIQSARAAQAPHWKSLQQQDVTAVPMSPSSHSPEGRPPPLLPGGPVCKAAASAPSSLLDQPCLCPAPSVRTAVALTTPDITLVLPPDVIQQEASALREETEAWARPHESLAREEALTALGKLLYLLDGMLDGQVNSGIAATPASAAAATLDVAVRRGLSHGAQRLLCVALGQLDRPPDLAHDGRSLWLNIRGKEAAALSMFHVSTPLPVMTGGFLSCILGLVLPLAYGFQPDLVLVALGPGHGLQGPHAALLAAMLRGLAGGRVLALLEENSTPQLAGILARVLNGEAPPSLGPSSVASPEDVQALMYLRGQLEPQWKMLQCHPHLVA
As to the kind of experiment: Inhibition of HDAC10 (unknown origin) assessed as residual activity at 1 x 10^-5M (reference value: 101.54%). The following applies: dose 1.0 10^-5M.

For assay [5], the target named is Histone deacetylase 2 (Homo sapiens, UniProt Q92769). The assay can be described thus: Inhibition of HDAC2 (unknown origin) assessed as residual activity at 3.33 x 10^-6M (reference value: 99.81%). The settings on record: dose 3.33 10^-6M.
Assay [6] concerns the target Histone deacetylase 4 (Homo sapiens) (UniProt P56524). As to the kind of experiment: Inhibition of HDAC4 (unknown origin) assessed as residual activity at 1.23 x 10^-7M (reference value: 98.90%). The following applies: dose 1.23 10^-7M.
In assay [7] the target is Histone deacetylase 5 (Homo sapiens) (UniProt Q9UQL6). As to the kind of experiment: Inhibition of HDAC5 (unknown origin) assessed as residual activity at 5.08 x 10^-10M (reference value: 100%). The settings on record: dose 5.08 10^-10M.
The target in assay [8] is T1, Histone deacetylase 8 (Homo sapiens). The assay can be described thus: Inhibition of HDAC8 (unknown origin) assessed as residual activity at 5.08 x 10^-10M (reference value: 100%). The following applies: dose 5.08 10^-10M.
The target of assay [9] is Histone deacetylase 9 (Homo sapiens) (UniProt Q9UKV0). As to the kind of experiment: Inhibition of HDAC9 (unknown origin) assessed as residual activity at 3.70 x 10^-7M (reference value: 97.55%). The following applies: dose 3.7 10^-7M.
Assay [10] has the same target. As to the kind of experiment: Inhibition of HDAC9 (unknown origin) assessed as residual activity at 1.37 x 10^-8M (reference value: 97.55%). The following applies: dose 1.37 10^-8M.
Assay [11] deals with T2, Polyamine deacetylase HDAC10 (Homo sapiens). As to the kind of experiment: Inhibition of HDAC10 (unknown origin) assessed as residual activity at 1.52 x 10^-9M (reference value: 101.54%). The settings on record: dose 1.52 10^-9M.
Assay [12] relates to HL-60. As to the kind of experiment: Upregulation of gammaH2AX protein expression in human HL-60 cells at 0.5 to 1 times IC50 by Western blot analysis. Format: functional, cell-based. A general note: A western blot detects proteins with antibodies after separation by electrophoresis.
The test system of assay [13] is HL-60. The assay can be described thus: Induction of autophagy in human HL-60 cells assessed as conversion of LC3-I to LC3-II at 0.5 to 1 times IC50 by Western blot analysis. Type of assay: functional, cell-based.
The test system of assay [14] is HL-60. As to the kind of experiment: Induction of apoptosis in human HL-60 cells assessed as nuclear fragmentation at 0.5 to 1 times IC50 by DAPI staining based microscopic analysis. Type of assay: functional, cell-based.
Assay [15] has as its system HL-60. As to the kind of experiment: Induction of apoptosis in human HL-60 cells assessed as cell blebbing at 0.5 to 1 times IC50 by DAPI staining based microscopic analysis. Type of assay: functional.

The source of these data is ChEMBL document CHEMBL5550160, “Leveraging a rationally designed veliparib-based anilide eliciting anti-leukemic effects for the design of pH-responsive polymer nanoformulation” (Eur J Med Chem, 2024).

SMILES strings stand for the structures. Calls of active or inactive are those of the source. No cut-off for these calls is given here. A value given as a limit tells only on which side of the number the result lay.

For orientation: IC50 means the concentration needed to halve the response being measured. Read a low IC50 as inhibition by little substance.

Sequence of Histone deacetylase 9 (Homo sapiens) (Q9UKV0 whole entry): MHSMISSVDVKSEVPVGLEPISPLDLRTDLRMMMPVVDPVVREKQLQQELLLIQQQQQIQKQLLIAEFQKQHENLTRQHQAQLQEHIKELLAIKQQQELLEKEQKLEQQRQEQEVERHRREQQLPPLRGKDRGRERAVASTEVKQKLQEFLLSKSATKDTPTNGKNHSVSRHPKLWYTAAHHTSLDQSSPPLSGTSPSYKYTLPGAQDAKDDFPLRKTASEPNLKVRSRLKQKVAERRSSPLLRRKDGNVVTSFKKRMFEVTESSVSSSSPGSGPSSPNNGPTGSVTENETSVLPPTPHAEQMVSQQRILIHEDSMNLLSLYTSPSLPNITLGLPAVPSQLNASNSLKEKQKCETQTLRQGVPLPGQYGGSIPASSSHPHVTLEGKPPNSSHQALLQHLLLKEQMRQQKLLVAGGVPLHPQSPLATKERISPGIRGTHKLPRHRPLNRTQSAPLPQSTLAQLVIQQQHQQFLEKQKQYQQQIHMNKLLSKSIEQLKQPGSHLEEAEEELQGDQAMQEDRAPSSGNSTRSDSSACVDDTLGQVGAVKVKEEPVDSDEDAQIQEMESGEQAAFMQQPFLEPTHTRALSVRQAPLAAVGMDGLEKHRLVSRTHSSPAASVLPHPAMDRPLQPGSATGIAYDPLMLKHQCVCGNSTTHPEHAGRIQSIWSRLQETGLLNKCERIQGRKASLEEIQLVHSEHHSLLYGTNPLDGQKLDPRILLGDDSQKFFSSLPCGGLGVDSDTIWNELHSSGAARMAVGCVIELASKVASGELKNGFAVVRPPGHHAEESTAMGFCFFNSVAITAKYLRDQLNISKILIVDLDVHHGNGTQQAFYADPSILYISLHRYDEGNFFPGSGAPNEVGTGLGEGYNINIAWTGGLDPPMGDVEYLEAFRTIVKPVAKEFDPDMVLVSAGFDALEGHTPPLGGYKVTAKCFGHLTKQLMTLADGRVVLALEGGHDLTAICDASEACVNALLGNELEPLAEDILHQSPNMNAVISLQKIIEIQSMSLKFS
Sequence of Histone deacetylase 5 (Homo sapiens) (Q9UQL6 whole entry): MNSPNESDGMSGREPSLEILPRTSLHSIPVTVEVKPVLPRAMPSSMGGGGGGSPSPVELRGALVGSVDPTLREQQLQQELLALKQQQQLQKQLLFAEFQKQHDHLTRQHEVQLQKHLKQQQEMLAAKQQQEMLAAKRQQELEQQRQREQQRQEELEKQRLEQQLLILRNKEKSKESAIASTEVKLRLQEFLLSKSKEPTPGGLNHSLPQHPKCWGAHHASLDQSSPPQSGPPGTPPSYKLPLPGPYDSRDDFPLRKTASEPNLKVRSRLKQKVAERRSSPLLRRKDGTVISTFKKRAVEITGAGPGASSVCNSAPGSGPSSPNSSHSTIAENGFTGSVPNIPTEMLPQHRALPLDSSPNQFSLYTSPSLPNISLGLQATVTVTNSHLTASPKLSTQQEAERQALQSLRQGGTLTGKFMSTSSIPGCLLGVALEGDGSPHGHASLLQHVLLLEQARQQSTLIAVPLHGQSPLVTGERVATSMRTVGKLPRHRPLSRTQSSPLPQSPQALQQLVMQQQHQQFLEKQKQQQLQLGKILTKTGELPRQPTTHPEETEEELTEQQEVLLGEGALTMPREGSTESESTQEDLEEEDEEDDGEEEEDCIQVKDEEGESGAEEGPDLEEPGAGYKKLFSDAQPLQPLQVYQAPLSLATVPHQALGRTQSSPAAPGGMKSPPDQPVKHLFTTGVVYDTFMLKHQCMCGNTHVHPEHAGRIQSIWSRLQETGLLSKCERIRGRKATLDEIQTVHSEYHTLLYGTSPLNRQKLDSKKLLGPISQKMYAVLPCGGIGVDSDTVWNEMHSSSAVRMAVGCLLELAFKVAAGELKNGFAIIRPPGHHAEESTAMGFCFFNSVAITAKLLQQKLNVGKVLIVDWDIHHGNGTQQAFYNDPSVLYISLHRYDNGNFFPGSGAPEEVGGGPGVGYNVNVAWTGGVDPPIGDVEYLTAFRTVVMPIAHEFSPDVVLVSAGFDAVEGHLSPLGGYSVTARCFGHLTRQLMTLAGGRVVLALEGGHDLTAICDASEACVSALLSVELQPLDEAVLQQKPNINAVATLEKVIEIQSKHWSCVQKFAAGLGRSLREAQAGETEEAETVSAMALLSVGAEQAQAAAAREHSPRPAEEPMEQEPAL
Sequence of Histone deacetylase 2 (Q92769 whole entry): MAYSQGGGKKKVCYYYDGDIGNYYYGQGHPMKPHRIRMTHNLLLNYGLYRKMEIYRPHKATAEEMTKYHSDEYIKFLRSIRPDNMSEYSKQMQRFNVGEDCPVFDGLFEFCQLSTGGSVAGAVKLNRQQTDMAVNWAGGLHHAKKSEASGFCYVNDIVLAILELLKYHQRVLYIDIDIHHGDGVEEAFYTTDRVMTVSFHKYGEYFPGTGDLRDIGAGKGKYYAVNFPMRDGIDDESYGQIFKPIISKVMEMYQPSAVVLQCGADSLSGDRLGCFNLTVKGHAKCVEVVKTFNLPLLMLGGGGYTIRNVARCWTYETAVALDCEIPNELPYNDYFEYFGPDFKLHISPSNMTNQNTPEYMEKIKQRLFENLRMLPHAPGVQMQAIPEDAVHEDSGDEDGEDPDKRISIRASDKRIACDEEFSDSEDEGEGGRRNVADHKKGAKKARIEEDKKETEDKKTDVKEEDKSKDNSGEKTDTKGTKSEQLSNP
Sequence of Histone deacetylase 4 (Homo sapiens) (P56524 whole entry): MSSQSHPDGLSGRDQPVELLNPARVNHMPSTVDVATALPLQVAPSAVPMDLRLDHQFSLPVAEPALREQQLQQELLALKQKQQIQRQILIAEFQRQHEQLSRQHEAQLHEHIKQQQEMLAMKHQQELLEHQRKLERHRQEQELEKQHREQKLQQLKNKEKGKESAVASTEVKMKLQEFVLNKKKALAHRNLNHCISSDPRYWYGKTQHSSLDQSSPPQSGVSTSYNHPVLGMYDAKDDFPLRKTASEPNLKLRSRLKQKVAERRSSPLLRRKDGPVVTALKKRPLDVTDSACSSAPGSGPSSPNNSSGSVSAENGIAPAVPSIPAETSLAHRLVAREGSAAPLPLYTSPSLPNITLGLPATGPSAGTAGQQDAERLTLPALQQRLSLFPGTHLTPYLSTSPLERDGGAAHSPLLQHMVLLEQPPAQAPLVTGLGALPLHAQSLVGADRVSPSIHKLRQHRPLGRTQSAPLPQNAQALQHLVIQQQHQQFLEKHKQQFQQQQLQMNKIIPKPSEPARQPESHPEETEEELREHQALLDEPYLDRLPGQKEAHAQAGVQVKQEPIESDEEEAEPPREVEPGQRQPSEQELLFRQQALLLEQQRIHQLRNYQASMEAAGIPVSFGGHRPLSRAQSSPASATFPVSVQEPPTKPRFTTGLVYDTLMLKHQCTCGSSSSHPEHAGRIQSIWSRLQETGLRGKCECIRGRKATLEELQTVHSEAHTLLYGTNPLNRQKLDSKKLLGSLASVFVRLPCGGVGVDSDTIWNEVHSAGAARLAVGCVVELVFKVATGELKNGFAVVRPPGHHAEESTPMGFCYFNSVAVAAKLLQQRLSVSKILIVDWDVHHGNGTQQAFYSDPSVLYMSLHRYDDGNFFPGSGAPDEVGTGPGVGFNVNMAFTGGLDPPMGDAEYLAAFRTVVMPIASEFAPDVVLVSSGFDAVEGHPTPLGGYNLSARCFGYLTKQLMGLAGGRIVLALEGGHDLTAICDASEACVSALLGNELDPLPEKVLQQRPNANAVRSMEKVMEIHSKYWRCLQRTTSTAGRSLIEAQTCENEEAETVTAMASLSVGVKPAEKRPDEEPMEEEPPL

As to `NC(=O)c1cccc2[nH]c(-c3ccc(NCc4ccc(C(=O)Nc5ccccc5N)cc4)cc3)nc12`, the IC50 in assay [1] is above 10 µM. Further, the Activity in assay [2] is 111%; in assay [3], 69.5%; in [4] it was 72.2%; in assay [5], 5.75%; in assay [6], 85%; in assay [7] it was 39%. Moreover, the Activity in assay [8] is 105%; in [9], 92.6%; in assay [10] it was 84.9%; in [11], 97.3%; in assay [13], “Dose-Dependent Effect”. The outcome in [12] was Active. In addition, the result in [14] and in [15] was inactive.
